Assay results reported in EP0889886B1, “NOVEL PHENANTHRIDINES SUBSTITUTED IN THE 6 POSITION” (ALTANA Pharma AG, priority 1996, dated 1997).
Where a name gives a salt, the structure may show the parent alone.

Each molecule was assayed on PDE IV (assay: Inhibition of PDE IV activity (method of Bauer and Schwabe, adapted to microtiter plates)). Conditions: Hemmung der PDE IV-Aktivität.
Format: biochemical
Protocol: Hierbei erfolgt im ersten Schritt die PDE-Reaktion. In einem zweiten Schritt wird das entstandene 5'-Nukleotid durch eine 5'-Nukleotidase des Schlangengiftes von Crotalus Atrox zum ungeladenen Nukleosid gespalten. Im dritten Schritt wird das Nukleosid auf lonenaustauschsäulen vom verbliebenen geladenen Substrat getrennt. Die Säulen werden mit 2 ml 30 mM Ammoniumformiat (pH 6,0) direkt in Minivials eluiert, in die noch 2 ml Szintillatorflüssigkeit zur Zählung gegeben wird.

SMILES	-log IC50
CCOc1cc2c(cc1OC)C(c1ccc(NS(=O)(=O)c3ccc(C(=O)OC)cc3)cc1)=N[C@@H]1CCCC[C@H]21 (racemic) [Verbindung 23, (+/-)-cis-9-Ethoxy-8-methoxy-6-[4-(4-methoxycarbonylphenyl)sulfonamidophenyl]-1,2,3,4,4a,10b-hexahvdrophenanthridin Hydrochlorid]	8.70
CCOc1cc2c(cc1OCC)[C@H]1CCCC[C@H]1N=C2c1ccc(N(C(C)=O)S(=O)(=O)c2ccc(C)cc2)cc1 (racemic) [Verbindung 35, (+/-)-cis-8,9-Diethoxy-6-[(N-acetyl-4-p-toluolsulfonamido]phenyl]-1,2,3,4,4a,10b-hexahydrophenanthridin]	7.81
CCOc1cc2c(cc1OCC)[C@@H]1CCCC[C@@H]1N=C2c1ccncc1.Cl.Cl (racemic) [Verbindung 24, (+/-)-cis-8,9-Diethoxy-6-(pyrid-4-yl)-1,2,3,4,4a,10b-hexahydrophenanthridin-dihydrochlorid]	8.08
COc1cc2c(cc1OC)C1CC=CCC1N=C2c1ccc(NS(=O)(=O)c2ccc(C)cc2)cc1 (racemic) [Verbindung 10, (+/-)-trans-8,9-Dimethoxy-6-(4-p-toluolsulfonamidophenyl)-1,4,4a,10b-tetrahydrophenanthridin-hydrochlorid]	6.10
COc1ccc(C2=N[C@H]3CCCC[C@H]3c3cc(OC)c(OC)cc32)cc1OC (racemic) [Verbindung 7, (+/-)-cis-8,9-Dimethoxy-6-(3,4-dimethoxyphenyl)-1,2,3,4,4a,10b-hexahydrophenanthridin]	6.44
COc1cc2c(cc1OC)[C@@H]1CCCC[C@@H]1N=C2c1ccc(N(S(=O)(=O)c2ccc([N+](=O)[O-])cc2)S(=O)(=O)c2ccc([N+](=O)[O-])cc2)cc1 (racemic) [Verbindung 30, (+/-)-cis-8,9-Dimethoxy-6-[4-bis(p-nitrophenylsulfonyl)aminophenyl]-1,2,3,4,4a,10b-hexahydrophenanthridin]	7.36
COc1cc2c(cc1OC)[C@H]1CCCC[C@H]1N=C2c1ccc(N(C(C)=O)S(=O)(=O)c2ccc(C)cc2)cc1 (racemic) [Verbindung 34, (+/-)-cis-8,9-Dimethoxy-6-[(N-acetyl-4-p-toluolsulfonamido)phenyl]-1,2,3,4,4a,10b-hexahydrophenanthridin]	7.42
CCOc1cc2c(cc1OCC)[C@@H]1CCCC[C@@H]1N=C2c1ccc(C#N)cc1 (racemic) [Verbindung 18, (+/-)-cis-8,9-Diethoxy-6-(4-cyanophenyl)-1,2,3,4,4a,10b-hexahydrophenanthridin]	8.24
CCOc1cc2c(cc1OC)C(c1ccc(N)cc1)=N[C@H]1CCCC[C@@H]21 (racemic) [Verbindung 29, (+/-)-cis-9-Ethoxy-8-methoxy-6-(4-aminophenyl)-1,2,3,4,4a,10b-hexahydrophenanthridin]	7.69
CCOc1cc2c(cc1OCC)[C@H]1CCCC[C@H]1N=C2c1ccc(NS(=O)(=O)c2ccc(C)cc2)cc1 (racemic) [Verbindung 2, (+/-)-cis-8,9-Diethoxy-6-(4-p-toluolsulfonamidophenyl)-1,2,3,4,4a,10b-hexahydrophenanthridin]	8.39
COc1cc2c(cc1OC)[C@H]1CCCC[C@H]1N=C2c1ccc(NS(=O)(=O)c2ccc(C)cc2)cc1 (racemic) [Verbindung 1, (+/-)-cis-8,9-Dimethoxy-6-(4-p-toluolsulfonamidophenyl)-1,2,3,4,4a,10b-hexahydrophenanthridin]	7.73
COc1cc2c(cc1OC)C1CCCCC1N=C2c1ccc(NS(=O)(=O)c2ccc(C)cc2)cc1 (racemic) [Verbindung 9, (+/-)-trans-8,9-Dimethoxy-6-(4-p-toluolsulfonamidophenyl)-1,2,3,4,4a,10b-hexahydrophenanthridin-hydrochtorid]	6.17
CCOc1cc2c(cc1OCC)[C@H]1CCCC[C@H]1N=C2c1ccc(C(F)(F)F)cc1 (racemic) [Verbindung 17, (+/-)-cis-8,9-Diethoxy-7-(4-trifluormethylphenyl)-1,2,3,4,4a,10b-hexahydrophenanthridin]	8.00
CCOc1cc2c(cc1OCC)[C@@H]1CCCC[C@@H]1N=C2c1ccc(-c2ccccc2)cc1 (racemic) [Verbindung 15, (+/-)-cis-6-Biphenyl-8,9-diethoxy-1,2,3,4,4a,10b-hexahydrophenanthridin]	7.98
CCOc1cc2c(cc1OC)C(c1ccc([N+](=O)[O-])cc1)=N[C@H]1CCCC[C@@H]21 (racemic) [Verbindung 21, (+/-)-cis-9-Ethoxy-8-methoxy-6-(4-nitrophenyl)-1,2,3,4,4a,10b-hexahydrophenanthridin]	8.46
CCOc1cc2c(cc1OC)C(c1ccc(N(C)S(=O)(=O)c3ccc(C)cc3)cc1)=N[C@@H]1CCCC[C@H]21 (racemic) [Verbindung 36, (+/-)-cis-9-Ethoxy-8-methoxy-6-[(N-methyl-4-p-toluolsulfonamido)phenyl]-1,2,3,4,4a,10bhexahydrophenanthridin]	9.09
COc1cc2c(cc1OC)[C@H]1CC(C)=C(C)C[C@H]1N=C2c1ccc(NS(=O)(=O)c2ccc(C)cc2)cc1 (racemic) [Verbindung 8, (+/-)-cis-8,9-Dimethoxy-2,3-dimethyl-6-(4-p-toluolsulfonamidophenyl)-1,4,4a,10b-tetrahydrophenanthridin]	6.91
COc1cc2c(cc1OC1CCCC1)C(c1ccc(NS(=O)(=O)c3ccc(C)cc3)cc1)=N[C@@H]1CCCC[C@H]21 (racemic) [Verbindung 4, (+/-)-cis-8-Cyclopentyloxy-9-methoxy-6-(4-p-toluolsulfonamidophenyl)-1,2,3,4,4a,10bhexahydrophenanthridin]	6.12
CCOc1cc2c(cc1OC)C(c1ccc(S(C)(=O)=O)cc1)=N[C@H]1CCCC[C@@H]21 (racemic) [Verbindung 22, (+/-)-cis-9-Ethoxy-8-methoxy-6-(4-methansulfonylphenyl)-1,2,3,4,4a,10b-hexahydrophenanthridin]	8.66
CCOc1cc2c(cc1OCC)[C@H]1CCCC[C@H]1N=C2c1ccc(Cl)nc1 (racemic) [Verbindung 26, (+/-)-cis-8,9-Diethoxy-6-(2-chiorpyrid-5-yl)-1,2,3,4,4a,10b-hexahydrophenanthridin]	8.41
CCOc1cc2c(cc1OCC)[C@@H]1CCCC[C@@H]1N=C2c1ccc(OC(C)=O)cc1 (racemic) [Verbindung 13, (+/-)-cis-6-(4-Acetoxyphenyl)-8,9-diethoxy-1,2,3,4,4a,10b-hexahydrophenanthridin]	8.43
CCOc1cc2c(cc1OCC)[C@@H]1CCCC[C@@H]1N=C2c1ccc(O)nc1 (racemic) [Verbindung 27, (+/-)-cis-8,9-Diethoxy-6-(2-hydroxypyrid-5-yl)-1,2,3,4,4a,10b-hexahydrophenanthridin]	6.66
